Some results are limits rather than exact numbers.

The nature of data set [1]: Intrinsic clearance in human liver microsomes at 0.5 uM after 30 mins in presence of NADPH by LC-MS/MS analysis. The note with it: 0.5 h. In kind it is ADME, Microsome.
The nature of data set [2]: Intrinsic clearance in mouse liver microsomes at 0.5 uM after 30 mins in presence of NADPH by LC-MS/MS analysis. In kind it is ADME, Microsome. The note with it: 0.5 h. In general terms: Microsomes from liver hold many membrane-bound enzymes, among them those of drug oxidation.
The next data set can be described thus: physchem. The note with it: buffer, pH 7.4, logD.
The conditions of data set [3]: buffer, pH 7.4.

In general, chromatographic logD refers to lipophilicity estimated from chromatographic retention. Take `CC1(c2ccc(N3CCOC3=O)cc2)NC(=O)N(CC(=O)c2ccc(F)cc2F)C1=O` (stereo not given): the figures for the CLH in data set [1] and in data set [2] were less than 0.4 mL/min/g and 3.54 mL/min/g, respectively. Further, in the data set “physchem”, the chromatographic logD was 3.94.
Turning to `CC1(c2ccc(S(C)(=O)=O)cc2)NC(=O)N(CC(=O)c2ccc(F)cc2F)C1=O` (stereo not given), the CLH in data set [1] came out at 0.46 mL/min/g; in data set [2], 2.5 mL/min/g. The chromatographic logD in “physchem” was determined as 3.64.
With `CC1(c2ccc(C#N)cc2)NC(=O)N(CC(=O)c2ccc(F)cc2F)C1=O` (stereo not given), the CLH is 0.49 mL/min/g in data set [1] and 3.52 mL/min/g in data set [2]. The same compound showed a chromatographic logD in “physchem” of 4.54.
As for `CC1(c2ccc(OC(F)F)cc2)NC(=O)N(CC(=O)c2ccc(F)cc2F)C1=O` (stereo not given), the CLH in data set [1] is less than 0.4 mL/min/g; in data set [2] it was 1.78 mL/min/g. Also, in the data set “physchem”, the chromatographic logD was 5.36.
Usually logD stands for lipophilicity at a set pH, counting ionised and neutral species. Read a low logD as a more hydrophilic compound. Take `CC1(c2ccc(C#N)cc2)NC(=O)N(CC(=NO)c2ccc(F)cc2F)C1=O` (stereo in doubt; 43a): the logD in data set [3] is reported as 3.38.
With `CC1(c2ccc(-n3cnnn3)cc2)NC(=O)N(CC(=O)c2ccc(F)cc2F)C1=O` (stereo not given), the CLH in data set [1] is less than 0.4 mL/min/g; in data set [2], 2.44 mL/min/g. In the data set “physchem”, this compound had a chromatographic logD of 3.78.
On the same counts, the results for `CC1(c2ccc(Br)cc2)NC(=O)N(CC(=O)c2ccc(F)cc2F)C1=O` (stereo not given) are less than 0.4 mL/min/g, 1.48 mL/min/g and 5.68.
Consider `CC(C)C1(c2ccc(Br)cc2)NC(=O)N(CC(=O)c2ccc(F)cc2F)C1=O` (stereo not given), for which the chromatographic logD in “physchem” is 6.57.
Take `CC1(c2ccc(NS(C)(=O)=O)cc2)NC(=O)N(CC(=O)c2ccc(F)cc2F)C1=O` (stereo not given): the values for the CLH in data set [1] and in data set [2] were 0.47 mL/min/g and 3.29 mL/min/g, respectively. The compound also gave a chromatographic logD in “physchem” of 3.57.
With `CC1(c2ccc(C#N)cc2)NC(=O)N(CC(=O)C2CCCCC2)C1=O` (stereo not given), the chromatographic logD in the data set “physchem” was 5.07.
On to `CC1(c2ccc(C#N)cc2)NC(=O)N(CC2(c3ccc(F)cc3F)COC2)C1=O` (stereo not given), for which the chromatographic logD in “physchem” is 4.21.

The record behind these values is ChEMBL document CHEMBL4382257, “Identification and Profiling of Hydantoins-A Novel Class of Potent Antimycobacterial DprE1 Inhibitors” (J Med Chem, 2018).
